Laboratory results reported in patent US8138215B2, “Hepatitis C virus inhibitors” (Bristol-Myers Squibb Company, priority 2009, dated 2012).
Where two headings read alike, the source gives them in different places.

System: HCV 1b genotype
Experiment: HCV Replicon assay, 1b genotype
Format: cell-based
Settings: Hepatitis C virus, HCV 1b genotype replicon
Protocol: An HCV Replicon assay was utilized in the present disclosure, and was prepared, conducted and validated as described in commonly owned PCT/US2006/022197 and in O'Boyle et. al. Antimicrob Agents Chemother. 2005 April; 49(4):1346-53. Assay methods incorporating luciferase reporters have also been used as described (Apath.com).
HCV-neo replicon cells and replicon cells containing mutations in the NS5A region were used to test the currently described family of compounds. The compounds were determined to have more than 10-fold less inhibitory activity on cells containing mutations than wild-type cells. Thus, the compounds of the present disclosure can be effective in inhibiting the function of the HCV NS5A protein and are understood to be as effective in combinations as previously described in application PCT/US2006/022197 and commonly owned WO/04014852. Further, the compounds of the present disclosure can be effective against the HCV 1b genotype. It should also be understood that the compounds of the present disclosure can inhibit multiple genotypes of HCV. […] In one embodiment, compounds of the present disclosure are active against the 1a, 1b, 2a, 2b, 3a, 4a, and 5a genotypes. EC50 values against HCV 1b are as follows: A=5 pM to 5 nM.

[1] = read-out: Range (EC50 values against HCV 1b)
[2] = read-out: 1b EC50 (Effective 50% inhibitory concentration)

SMILES	EC50 [1]	EC50 [2]
O=C(N[C@@H](C(=O)N1CCC[C@H]1c1nc(-c2ccc(-c3ccc(-c4c[nH]c([C@@H]5CCCN5C(=O)[C@H](NC(=O)OC5CCC5)c5ccccc5)n4)cc3)cc2)c[nH]1)c1ccccc1)OC1CCC1 [Example CQ-1, Cyclobutyl ((1R)-2-((2S)-2-(4-(4′-(2-((2S)-1-((2R)-2-(((cyclobutyloxy)carbonyl)amino)-2-phenylacetyl)-2-pyrrolidinyl)-1H-imidazol-5-yl)-4-biphenylyl)-1H-imidazol-2-yl)-1-pyrrolidinyl)-2-oxo-1-phenylethyl)carbamate]	5 to 5000 pM	–
O=C(N[C@@H](C(=O)N1CCC[C@H]1c1nc(-c2ccc(-c3ccc(-c4c[nH]c([C@@H]5CCCN5C(=O)[C@H](NC(=O)OC5CCCC5)c5ccccc5)n4)cc3)cc2)c[nH]1)c1ccccc1)OC1CCCC1 [Example CQ-2, Cyclopentyl ((1R)-2-((2S)-2-(4-(4′-(2-((2S)-1-((2R)-2-(((cyclopentyloxy)carbonyl)amino)-2-phenylacetyl)-2-pyrrolidinyl)-1H-imidazol-5-yl)-4-biphenylyl)-1H-imidazol-2-yl)-1-pyrrolidinyl)-2-oxo-1-phenylethyl)carbamate]	5 to 5000 pM	12 pM
O=C(N[C@@H](C(=O)N1CCC[C@H]1c1nc(-c2ccc(-c3ccc(-c4cnc([C@@H]5CCCN5C(=O)[C@H](NC(=O)OC5CC5)c5ccccc5)[nH]4)cc3)cc2)c[nH]1)c1ccccc1)OC1CC1 [Example CQ-3, Cyclopropyl ((1R)-2-((2S)-2-(4-(4′-(2-((2S)-1-((2R)-2-(((cyclopropyloxy)carbonyl)amino)-2-phenylacetyl)-2-pyrrolidinyl)-1H-imidazol-5-yl)-4-biphenylyl)-1H-imidazol-2-yl)-1-pyrrolidinyl)-2-oxo-1-phenylethyl)carbamate]	5 to 5000 pM	–
O=C(N[C@@H](C(=O)N1CCC[C@H]1c1nc(-c2ccc(-c3ccc(-c4cnc([C@@H]5CCCN5C(=O)[C@H](NC(=O)OC5CCCCC5)c5ccccc5)[nH]4)cc3)cc2)c[nH]1)c1ccccc1)OC1CCCCC1 [Example CQ-4, Cyclohexyl ((1R)-2-((2S)-2-(4-(4′-(2-((2S)-1-((2R)-2-(((cyclohexyloxy)carbonyl)amino)-2-phenylacetyl)-2-pyrrolidinyl)-1H-imidazol-5-yl)-4-biphenylyl)-1H-imidazol-2-yl)-1-pyrrolidinyl)-2-oxo-1-phenylethyl)carbamate]	5 to 5000 pM	–
O=C(N[C@@H](C(=O)N1[C@@H]2C[C@@H]2C[C@H]1c1nc(-c2ccc(-c3ccc(-c4c[nH]c([C@@H]5C[C@H]6C[C@H]6N5C(=O)[C@H](NC(=O)OC5CCC5)c5ccccc5)n4)cc3)cc2)c[nH]1)c1ccccc1)OC1CCC1 [Example CQ-5, Cyclobutyl ((1R)-2-((1R,3S,5R)-3-(4-(4′-(2-((1R,3S,5R)-2-((2R)-2-(((cyclobutyloxy)carbonyl)amino)-2-phenylacetyl)-2-azabicyclo[3.1.0]hex-3-yl)-1H-imidazol-5-yl)-4-biphenylyl)-1H-imidazol-2-yl)-2-azabicyclo[3.1.0]hex-2-yl)-2-oxo-1-phenylethyl)carbamate]	5 to 5000 pM	–
O=C(N[C@@H](C(=O)N1[C@@H]2C[C@@H]2C[C@H]1c1nc(-c2ccc(-c3ccc(-c4c[nH]c([C@@H]5C[C@H]6C[C@H]6N5C(=O)[C@H](NC(=O)OC5CCCC5)c5ccccc5)n4)cc3)cc2)c[nH]1)c1ccccc1)OC1CCCC1 [Example CQ-6, Cyclopentyl ((1R)-2-((1R,3S,5R)-3-(4-(4′-(2-((1R,3S,5R)-2-((2R)-2-(((cyclopentyloxy)carbonyl)amino)-2-phenylacetyl)-2-azabicyclo[3.1.0]hex-3-yl)-1H-imidazol-5-yl)-4-biphenylyl)-1H-imidazol-2-yl)-2-azabicyclo[3.1.0]hex-2-yl)-2-oxo-1-phenylethyl)carbamate]	5 to 5000 pM	–
O=C(N[C@@H](C(=O)N1[C@@H]2C[C@@H]2C[C@H]1c1nc(-c2ccc(-c3ccc(-c4cnc([C@@H]5C[C@H]6C[C@H]6N5C(=O)[C@H](NC(=O)OC5CC5)c5ccccc5)[nH]4)cc3)cc2)c[nH]1)c1ccccc1)OC1CC1 [Example CQ-7, Cyclopropyl ((1R)-2-((1R,3S,5R)-3-(4-(4′-(2-((1R,3S,5R)-2-((2R)-2-(((cyclopropyloxy)carbonyl)amino)-2-phenylacetyl)-2-azabicyclo[3.1.0]hex-3-yl)-1H-imidazol-5-yl)-4-biphenylyl)-1H-imidazol-2-yl)-2-azabicyclo[3.1.0]hex-2-yl)-2-oxo-1-phenylethyl)carbamate]	5 to 5000 pM	6.1 pM
O=C(N[C@@H](C(=O)N1[C@@H]2C[C@@H]2C[C@H]1c1nc(-c2ccc(-c3ccc(-c4cnc([C@@H]5C[C@H]6C[C@H]6N5C(=O)[C@H](NC(=O)OC5CCCCC5)c5ccccc5)[nH]4)cc3)cc2)c[nH]1)c1ccccc1)OC1CCCCC1 [Example CQ-8, Cyclohexyl ((1R)-2-((1R,3S,5R)-3-(4-(4′-(2-((1R,3S,5R)-2-((2R)-2-(((cyclohexyloxy)carbonyl)amino)-2-phenylacetyl)-2-azabicyclo[3.1.0]hex-3-yl)-1H-imidazol-5-yl)-4-biphenylyl)-1H-imidazol-2-yl)-2-azabicyclo[3.1.0]hex-2-yl)-2-oxo-1-phenylethyl)carbamate]	5 to 5000 pM	–
